Experimental data taken from patent publication US20230279020A9, “CARM1 INHIBITORS AND USES THEREOF” (Epizyme, Inc., priority 2013, published 2023).

What follows are molecules tested against Human CARM1 (PRMT4) (Homo sapiens (Human), UniProt Q86X55) (assay: CARM1 enzyme assay on peptide substrate (3H-SAM Flashplate)). Conditions: Biochemical potencies, classification codes; read-out: Biochem IC50.
Human CARM1 (PRMT4), sequence (Q86X55 other isoform, or with tags, fused parts or gaps isoform Q86X55-1): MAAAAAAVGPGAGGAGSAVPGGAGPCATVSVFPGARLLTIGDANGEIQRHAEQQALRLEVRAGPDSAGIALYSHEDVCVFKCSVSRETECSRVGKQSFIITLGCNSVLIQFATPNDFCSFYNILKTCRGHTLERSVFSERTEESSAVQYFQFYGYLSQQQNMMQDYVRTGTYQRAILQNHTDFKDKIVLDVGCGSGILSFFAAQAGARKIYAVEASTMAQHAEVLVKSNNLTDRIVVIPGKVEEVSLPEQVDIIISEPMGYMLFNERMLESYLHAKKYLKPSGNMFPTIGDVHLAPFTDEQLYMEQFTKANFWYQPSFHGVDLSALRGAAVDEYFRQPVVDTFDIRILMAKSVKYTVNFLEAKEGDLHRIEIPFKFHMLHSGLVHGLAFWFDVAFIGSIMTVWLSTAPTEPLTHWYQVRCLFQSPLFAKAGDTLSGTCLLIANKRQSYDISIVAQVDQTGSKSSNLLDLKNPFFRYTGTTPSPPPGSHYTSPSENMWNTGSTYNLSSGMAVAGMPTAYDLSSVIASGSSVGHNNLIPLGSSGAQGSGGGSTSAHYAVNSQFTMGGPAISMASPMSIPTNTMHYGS

SMILES	IC50 [nM]
CCOC(=O)N1CCOC[C@@H]1CNc1nc(-c2cc(OCC(O)CNC)ccc2Cl)nc(-c2c(C)nsc2C)c1C (stereo partly drawn) [Example 93-3]	< 100
CNCC(O)COc1cccc(-c2nc(-c3c(C)noc3C)cc(N3C[C@@H]4C[C@H]3CN4C(=O)OC)n2)c1 (stereo partly drawn) [Example 94-1a]	< 100
CNC[C@H](O)COc1ccc(Cl)c(-c2nc(N[C@@H]3CCOC3)c(C)c(-c3c(C)noc3C)n2)c1 [Example 94-3]	< 100
CNCC(O)COc1cccc(-c2nc(-c3c(C)noc3C)cc(N3C[C@@H]4C[C@H]3CN4C(C)=O)n2)c1 (stereo partly drawn) [Example 95-1a]	< 100
CNC[C@H](O)COc1ccc(Cl)c(-c2nc(-c3c(C)noc3C)c(C)c(N(C)[C@H]3C[C@@](C)(OC)C3)n2)c1 [Example 95-3]	< 100
CNCC(O)COc1cccc(-c2nc(NC3CCOCC3)c(F)c(-c3c(C)noc3C)n2)c1 (stereo not drawn) [Example 96-1a]	< 100
CNC[C@H](O)COc1ccc(Cl)c(-c2nc(NCC3COCCO3)c(C)c(-c3c(C)noc3C)n2)c1 (stereo partly drawn) [Example 96-3]	< 100
CNCC(O)COc1cccc(-c2nc(-c3c(C)noc3C)c(F)c(N3CCN(C(=O)OC)CC3)n2)c1 (stereo not drawn) [Example 97-1a]	< 100
CNCC(O)COc1ccc(Cl)c(-c2nc(NC3CCOCC3)c(C)c(-c3c(C)nsc3C)n2)c1 (stereo not drawn) [Example 97-3]	< 100
CNCC(O)COc1cccc(-c2nc(-c3c(C)noc3C)cc(N(CCOC)C3CCOCC3)n2)c1 (stereo not drawn) [Example 98-1a]	< 100
CNC[C@@H](O)COc1ccc(F)c(-c2nc(N[C@H]3CCN(C4CC4)C[C@H]3F)c(C)c(-c3c(C)noc3C)n2)c1 [Example 98-3]	< 100
CNCC(O)COc1cccc(-c2nc(NCCCN3CCCCCC3=O)cc(-c3c(C)noc3C)n2)c1 (stereo not drawn) [Example 99-1a]	< 100
CNC[C@H](O)COc1ccc(F)c(-c2nc(N[C@H]3CCN(C4CC4)C[C@H]3F)c(C)c(-c3c(C)noc3C)n2)c1 [Example 99-3]	< 100
CNCC(O)COc1cccc(-c2nc(-c3c(C)noc3C)cc(N3C[C@H]4C[C@@H]3CN4S(C)(=O)=O)n2)c1 (stereo partly drawn) [Example 100-1a]	< 100
CNC[C@@H](O)COc1ccc(Cl)c(-c2nc(N[C@@H]3CCOC3)c(C)c(-c3c(C)noc3C)n2)c1 [Example 100-3]	< 100
CNCC(O)COc1cccc(-c2nc(NC3(C)CCOCC3)c(C)c(-c3c(C)noc3C)n2)c1 (stereo not drawn) [Example 101-1a]	< 100
CNC[C@@H](O)COc1ccc(Cl)c(-c2nc(N[C@@H]3CCN(C(=O)OC)[C@@H](C)C3)c(C)c(-c3c(C)noc3C)n2)c1 [Example 101-3]	< 100
CNCC(O)COc1cccc(-c2nc(NC3CCN(C(=O)OC)CC3)cc(-c3c(C)noc3C)n2)c1 (stereo not drawn) [Example 102-1a]	< 100
CNC[C@@H](O)COc1ccc(Cl)c(-c2nc(N[C@H]3CCN(C(=O)OC)[C@H](C)C3)c(C)c(-c3c(C)noc3C)n2)c1 [Example 102-3]	< 100
CNCC(O)COc1cccc(-c2nc(-c3c(C)noc3C)cc(N3CCN(CCF)[C@@H](C)C3)n2)c1 (stereo partly drawn) [Example 103-1a]	< 100
CNC[C@H](O)COc1ccc(Cl)c(-c2nc(N[C@H]3CCN(C(=O)OC)[C@H](C)C3)c(C)c(-c3c(C)noc3C)n2)c1 [Example 103-3]	< 100
CNCC(O)COc1cccc(-c2nc(-c3c(C)noc3C)cc(N3CCN(CC(F)(F)F)[C@@H](C)C3)n2)c1 (stereo partly drawn) [Example 104-1a]	< 100

SMILES	IC50 [nM]
CNC[C@@H](O)COc1ccc(Cl)c(-c2nc(NC3CCN(C(=O)OC)CC3)c(C)c(-c3c(C)noc3C)n2)c1 [Example 104-3]	< 100
CCOC(=O)N1CCC(Nc2nc(-c3cc(OC[C@@H](O)CNC)ccc3Cl)nc(-c3c(C)noc3C)c2C)CC1 [Example 105-3]	< 100
CCNC(=O)N1CCN(c2nc(-c3cccc(OCC(O)CNC)c3)nc(-c3c(C)noc3C)c2C)CC1 (stereo not drawn) [Example 106-1a]	< 100
CNC[C@H](O)COc1ccc(F)c(-c2nc(-c3c(C)noc3C)c(C)c(N3CCC4(CCN(C(=O)OC)C4)C3)n2)c1 (stereo partly drawn) [Example 106-3]	< 100
CNCC(O)COc1cccc(-c2nc(-c3c(C)noc3C)c(C)c(N3CCN(C(=O)C(F)F)CC3)n2)c1 (stereo not drawn) [Example 107-1a]	< 100
CNCC(O)COc1cccc(-c2nc(-c3c(C)noc3C)c(C)c(N3CCN(C(=O)C4CCOCC4)CC3)n2)c1 (stereo not drawn) [Example 108-1a]	< 100
CNC[C@@H](O)COc1ccc(Cl)c(-c2nc(-c3c(C)noc3C)c(C)c(N3CC4(CCN(C5CC5)CC4)C3)n2)c1 [Example 108-3]	< 100
CNCC(O)COc1cccc(-c2nc(-c3c(C)noc3C)cc(N3C[C@H]4C[C@@H]3CN4)n2)c1 (stereo partly drawn) [Example 109-1a]	< 100
CNCC(O)COc1cccc(-c2nc(-c3c(C)noc3C)c(C)c(N3CCN4C(=O)OC[C@@H]4C3)n2)c1 (stereo partly drawn) [Example 110-1a]	< 100
CNC[C@@H](O)COc1ccc(Cl)c(-c2nc(N[C@H]3C[C@@](C)(OC)C3)c(C)c(-c3c(C)noc3C)n2)c1 [Example 110-3]	< 100
CNCC(O)COc1cccc(-c2nc(-c3c(C)noc3C)c(C)c(N3CC[C@@H](S(C)(=O)=O)C3)n2)c1 (stereo partly drawn) [Example 111-1a]	< 100
CNC[C@@H](O)COc1ccc(Cl)c(-c2nc(N[C@H]3CCOC3)c(C)c(-c3c(C)noc3C)n2)c1 [Example 111-3]	< 100
CNCC(O)COc1cccc(-c2nc(-c3c(C)noc3C)cc(-c3cnc4cnccn34)n2)c1 (stereo not drawn) [Example 112-1a]	< 100
CCOC(=O)N1CC[C@@H](Nc2nc(-c3cc(OC[C@H](O)CNC)ccc3Cl)nc(-c3c(C)noc3C)c2C)C1 [Example 112-3]	< 100
CNCC(O)COc1cccc(-c2nc(NCC3(O)CCOCC3)c(C)c(-c3c(C)noc3C)n2)c1 (stereo not drawn) [Example 114-1a]	< 100
CNC[C@@H](O)COc1ccc(F)c(-c2nc(-c3c(C)noc3C)c(C)c(N3Cc4cccnc4C3)n2)c1 [Example 114-3]	< 100
CNCC(O)COc1cccc(-c2nc(NCC3(C)CCOCC3)c(C)c(-c3c(C)noc3C)n2)c1 (stereo not drawn) [Example 115-1a]	< 100
CNC[C@@H](O)COc1ccc(Cl)c(-c2nc(-c3c(C)noc3C)c(C)c(N3CCC4(CC3)CN(C(=O)OC)C4)n2)c1 [Example 115-3]	< 100
CNCC(O)COc1cccc(-c2nc(-c3c(C)noc3C)c(C)c(N3C[C@H]4CC[C@@H](C3)N4C)n2)c1 (stereo partly drawn) [Example 116-1a]	< 100
CNC[C@@H](O)COc1ccc(Cl)c(-c2nc(OC[C@H]3CCCO3)c(C)c(-c3c(C)noc3C)n2)c1 [Example 116-3]	< 100
CNCC(O)COc1cccc(-c2nc(-c3c(C)noc3C)c(C)c(N3[C@@H]4CC[C@H]3CN(C)C4)n2)c1 (stereo partly drawn) [Example 117-1a]	< 100
CNC[C@@H](O)COc1ccc(Cl)c(-c2nc(OC[C@H]3CCOC3)c(C)c(-c3c(C)noc3C)n2)c1 [Example 117-3]	< 100

SMILES	IC50 [nM]
CNCC(O)COc1cccc(-c2nc(NC3CCN(C(=O)OC)CC3)c(C)c(-c3c(C)noc3C)n2)c1 (stereo not drawn) [Example 118-1a]	< 100
CNC[C@@H](O)COc1ccc(Cl)c(-c2nc(-c3c(C)noc3C)c(C)c(N3CC4(CCOCC4)C3)n2)c1 [Example 118-3]	< 100
CNC[C@@H](O)COc1ccc(Cl)c(-c2nc(-c3c(C)noc3C)c(C)c(N3CC4(CCCOC4)C3)n2)c1 [Example 119-3]	< 100
CNCC(O)COc1cccc(-c2nc(-c3c(C)noc3C)cc(N3CCN(C(=O)N(C)C)CC3)n2)c1 (stereo not drawn) [Example 120-1a]	< 100
CNC[C@@H](O)COc1ccc(Cl)c(-c2nc(-c3c(C)noc3C)c(C)c(N3CC4(CCOC4)C3)n2)c1 [Example 120-3]	< 100
CNCC(O)COc1cccc(-c2nc(-c3c(C)noc3C)c(C)c(N3CCN(C(=O)OCCF)CC3)n2)c1 (stereo not drawn) [Example 121-1a]	< 100
CNC[C@@H](O)COc1ccc(Cl)c(-c2nc(-c3c(C)noc3C)c(C)c(N3CC4(CCCO4)C3)n2)c1 [Example 121-3]	< 100
CNC[C@@H](O)COc1ccc(Cl)c(-c2nc(-c3c(C)noc3C)c(C)c(N3CCc4nn(C)cc4C3)n2)c1 [Example 122-3]	< 100
CNCC(O)COc1cccc(-c2nc(-c3c(C)noc3C)c(C)c(N3CCO[C@H](CNC)C3)n2)c1 (stereo partly drawn) [Example 124-1a]	< 100
CNCC(O)COc1ccc(C)c(-c2nc(NC3CCOC(C)C3)c(C)c(-c3c(C)noc3C)n2)c1 (stereo not drawn) [Example 124-3]	< 100
CNCC(O)COc1cccc(-c2nc(-c3c(C)noc3C)c(C)c(N3CCO[C@H](CO)C3)n2)c1 (stereo partly drawn) [Example 125-1a]	< 100
CNCC(O)COc1ccc(C)c(-c2nc(NC3CCN(C(=O)OC)CC3)c(C)c(-c3c(C)noc3C)n2)c1 (stereo not drawn) [Example 125-3]	< 100
CNCC(O)COc1cccc(-c2nc(-c3c(C)noc3C)c(C)c(N3CCO[C@H](CN(C)S(C)(=O)=O)C3)n2)c1 (stereo partly drawn) [Example 126-1a]	< 100
CNC[C@@H](O)COc1ccc(Cl)c(-c2nc(OC[C@@H]3CCOC3)c(C)c(-c3c(C)noc3C)n2)c1 [Example 126-3]	< 100
CNCC(O)COc1cccc(-c2nc(-c3c(C)noc3C)c(C)c(N3CCO[C@H](CN(C)C(=O)OC)C3)n2)c1 (stereo partly drawn) [Example 127-1a]	< 100
CNC[C@@H](O)COc1ccc(Cl)c(-c2nc(NC3CCOCC3)c(C)c(-c3c(C)noc3C)n2)c1 [Example 127-3]	< 100
CNC[C@@H](O)COc1ccc(Cl)c(-c2nc(N[C@H]3CCO[C@@H](C)C3)c(C)c(-c3c(C)noc3C)n2)c1 [Example 128-3]	< 100
CCOC(=O)N1CC[C@@H](Nc2nc(-c3cc(OC[C@H](O)CNC)ccc3Cl)nc(-c3c(C)noc3C)c2Cl)C1 [Example 129-3]	< 100
CNC[C@@H](O)COc1ccc(Cl)c(-c2nc(NC[C@H]3CCCO3)c(C)c(-c3c(C)noc3C)n2)c1 [Example 130-3]	< 100
CNCC(O)COc1cccc(-c2nc(-c3c(C)noc3C)cc(N3CCNC(C(F)(F)F)C3)n2)c1 (stereo not drawn) [Example 131-1a]	< 100
CNC[C@@H](O)COc1ccc(Cl)c(-c2nc(NC[C@@H]3CCCO3)c(C)c(-c3c(C)noc3C)n2)c1 [Example 131-3]	< 100
CNCC(O)COc1cccc(-c2nc(-c3c(C)noc3C)cc(N3CCN(CC(F)(F)F)CC3)n2)c1 (stereo not drawn) [Example 132-1a]	< 100
